How the values were obtained:
[1] = molecular target: T1, Alpha-2A adrenergic receptor (Homo sapiens, UniProt P08913); assay: Binding affinity against human Alpha-2A adrenergic receptor expressed stably in CHO cells using [3H]rauwolscine as radioligand; format: cell-based
T1 sequence (P08913 whole entry): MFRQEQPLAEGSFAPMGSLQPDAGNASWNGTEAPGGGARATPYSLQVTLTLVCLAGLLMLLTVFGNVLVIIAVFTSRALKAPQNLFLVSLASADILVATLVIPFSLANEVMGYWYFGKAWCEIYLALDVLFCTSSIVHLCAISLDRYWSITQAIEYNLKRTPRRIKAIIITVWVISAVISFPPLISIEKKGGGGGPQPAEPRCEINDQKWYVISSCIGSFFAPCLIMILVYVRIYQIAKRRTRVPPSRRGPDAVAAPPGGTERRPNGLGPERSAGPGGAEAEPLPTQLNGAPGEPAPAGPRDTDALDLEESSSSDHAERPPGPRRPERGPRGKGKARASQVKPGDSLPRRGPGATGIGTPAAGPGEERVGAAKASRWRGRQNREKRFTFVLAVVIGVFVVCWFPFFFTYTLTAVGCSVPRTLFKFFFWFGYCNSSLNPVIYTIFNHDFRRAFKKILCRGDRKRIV

[2] = molecular target: T2, Alpha-2B adrenergic receptor (Homo sapiens, UniProt P18089); assay: biochemical; format: cell-based, CHO
T2 sequence (P18089 whole entry): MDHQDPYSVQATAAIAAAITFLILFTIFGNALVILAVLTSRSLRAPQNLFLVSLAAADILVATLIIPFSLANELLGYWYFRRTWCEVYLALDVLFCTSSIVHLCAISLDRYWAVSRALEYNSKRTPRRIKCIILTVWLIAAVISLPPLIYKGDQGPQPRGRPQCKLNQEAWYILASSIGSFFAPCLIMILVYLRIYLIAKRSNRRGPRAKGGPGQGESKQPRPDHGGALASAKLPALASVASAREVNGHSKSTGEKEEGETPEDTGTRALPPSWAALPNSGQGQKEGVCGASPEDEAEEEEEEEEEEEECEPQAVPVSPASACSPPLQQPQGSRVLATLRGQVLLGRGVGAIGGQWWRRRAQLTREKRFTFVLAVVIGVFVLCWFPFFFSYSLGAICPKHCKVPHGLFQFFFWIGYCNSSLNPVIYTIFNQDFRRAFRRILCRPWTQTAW

Homo sapiens = organism: Homo sapiens; assay: Selectivity for alpha-2a to that of alpha2b determined by their binding affinity ratios

Structure (SMILES)	Ki [1]	Ki [2]	Selectivity (Homo sapiens)
O=C(NCCCCCCCCCNC(=O)[C@@H]1[C@H]2C[C@H]3c4[nH]c5ccccc5c4CCN3C[C@@H]2CC[C@@H]1O)[C@@H]1[C@H]2C[C@H]3c4[nH]c5ccccc5c4CCN3C[C@@H]2CC[C@@H]1O	1.25 nM	44.7 nM	35.8
O=C(NCCCCCCCCCCCCNC(=O)[C@@H]1[C@H]2C[C@H]3c4[nH]c5ccccc5c4CCN3C[C@@H]2CC[C@@H]1O)[C@@H]1[C@H]2C[C@H]3c4[nH]c5ccccc5c4CCN3C[C@@H]2CC[C@@H]1O	1.18 nM	18.5 nM	15.7
O=C(NCCCCCCCCCCNC(=O)[C@@H]1[C@H]2C[C@H]3c4[nH]c5ccccc5c4CCN3C[C@@H]2CC[C@@H]1O)[C@@H]1[C@H]2C[C@H]3c4[nH]c5ccccc5c4CCN3C[C@@H]2CC[C@@H]1O	–	–	47.7
O=C(NCCCCCCCCNC(=O)[C@@H]1[C@H]2C[C@H]3c4[nH]c5ccccc5c4CCN3C[C@@H]2CC[C@@H]1O)[C@@H]1[C@H]2C[C@H]3c4[nH]c5ccccc5c4CCN3C[C@@H]2CC[C@@H]1O	–	–	60.5

From ChEMBL document CHEMBL1133436 (Bioorg Med Chem Lett, 2000)
